Measured values as given in US20260124293A1 (priority 2022, published 2026).

How the values were obtained:
K18-hACE2 mice = conditions: mouse, in vivo
Syrian hamsters = conditions: hamster, in vivo

BetaCoV/Wuhan/IVDC-HB-01/2019 [SARS-CoV-2 WT]
body weight loss (K18-hACE2 mice): associated with weight loss | clinical signs (K18-hACE2 mice): only WT exhibit clinical signs | animals that succumbed to the disease or reached termination criteria (Syrian hamsters): 75% | mean bodyweight (Syrian hamsters): 84%
